Results published in patent publication US11377499B2, “Targeting the cofilin pathway” (priority 2017, dated 2022).

Experiments:
LIMK = conditions: previously identified (30); cited from earlier work
[1] = prevents therapeutic use; cited from earlier work
[2] = test system: cofilin phosphorylation in resting memory CD4 T cells; experiment: Intracellular p-cofilin staining and flow cytometry after HIV-1(AD8) or gp120(BAL) stimulation; format: cell-based, human
From the text: In addition to CXCR4, CCR5 is used by R5-tropic viruses that predominate early in the infection; R5 HIV infects and depletes gut memory CD4 T cells, leading to chronic immune activation (20, 21). Whether HIV-mediated CCR5 signaling can also lead to cofilin activation in memory T cells was investigated. In contrast to X4 viruses, which infect both memory and naïve CD4 T cells, R5 viruses infect a subpopulation of memory CD4 T cells (FIG. 1A). CCR5 is present on only around 30% of resting memory CD4 T cells (FIG. 1B). Given this low percentage, a flow cytometry-based intracellular phospho-cofilin staining method was used to quantify cofilin in individual cells. […]
A3R5.7 cell is acquired from the NIH AIDS Reagent Program. […] Viral titer (TCID50) was determined on the Rev-dependent GFP indicator cell (61), Rev-A3R5-GFP (Virongy, Manassas, Va.). […] T cells were stained with anti-CD45RO-Pacific Blue monoclonal antibody (BD Pharmingen) and analyzed by Flow Cytometry for CD45RO and GFP expression. […]
One million cells were fixed, permeabilized with methanol, washed, and then stained with an anti-human p-cofilin antibody using a commercial intracellular staining kit (Virongy, Manassas, Va.) for 60 min at room temperature. […] Cells were washed twice, and then analyzed on a FACSCalibur (BD Biosciences, San Jose, Calif.).

[3] = test system: A3R5.7 T cells or blood resting CD4 T cells; experiment: Chemotaxis trans-well assay in response to SDF-1; format: cell-based, human
Method: (§1) Cells were stained with PE-labeled Rat anti-human CCR5 antibody (Biolegend, San Diego, Calif.) or with a mouse anti-human α4β7 integrin antibody (Act-1) (obtained from NIH AIDS Reagent Program) followed by secondary antibody staining with Alexa Fluor 647-labelled goat anti-mouse antibodies (Invitrogen, Carlsbad, Calif.). Cells were stained on ice in PBS+0.1% BSA for 30 minutes, washed with cold PBS-0.5% BSA, and then analyzed on a FACSCalibur (BD Biosciences, San Jose, Calif.).
A half million cells were resuspended into 100 μl RPMI-1640 medium and then added to the upper chamber of a 24-well trans-well plate (Corning, Corning, N.Y.). The lower chamber was filled with 600 μl of medium premixed with SDF-1 (40 ng/ml). The plate was incubated at 37° C. for 2 hours, and then the upper chamber was removed and cells in the lower chamber were counted. Where indicated, different concentrations of R10015 (29) or DMSO were added to cell culture, incubated for 1 hour at 37° C. before adding cells to the upper chamber. Cells were also treated with the anti-human α4β7 integrin antibody (Act-1) or the control mouse IgG1 antibody for 15 minutes before adding cells to the upper chamber. Act-1 (1 μg/ml) was also added to the lower chamber with SDF-1 (40 ng/ml).

[4] = test system: cofilin phosphorylation in A3R5.7 T cells or blood resting CD4 T cells; experiment: Western blot for p-cofilin and cofilin after R10015 treatment; format: cell-based, human
From the text: Cofilin hyperactivation may be associated with a migratory impairment of CCR6+ and CXCR3+ helper T cells (Th), which are prevented from trafficking from the blood stream to peripheral organs even in aviremic HIV patients on long-term ART (5). T cell migration and homing is controlled by chemotactic signaling which activates cycles of cofilin phosphorylation and dephosphorylation to drive actin dynamics for cell motility. Phosphorylation of cofilin is regulated by LIM-domain kinase (LIMK), which inactivates cofilin through serine 3 phosphorylation (28). To quantify the effect of cofilin hyperactivation on T cell migration, a recently discovered LIMK inhibitor, R10015 (29) was used, to mimic cofilin activation in HIV infection. A human CD4 T cell line, A3R5.7, or blood resting CD4 T cells were treated with different dosages of R10015 during chemotaxis (FIG. 3). […] At around 15 to 20 μM of R10015, cofilin phosphorylation was reduced to around 50%, approximately the level seen in HIV patients (FIGS. 3A and 3B).
One million cells were lysed in NuPAGE LDS Sample Buffer (Invitrogen, Carlsbad, Calif.) followed by sonication. Samples were heated at 70° C. for 10 minutes, separated by SDS-PAGE, and then transferred onto nitrocellulose membranes (Invitrogen, Carlsbad, Calif.). The membranes were washed in TBST for 3 minutes and then blocked for 30 minutes at room temperature with 5% milk. […]

[5] = test system: cofilin phosphorylation in resting memory and IL-7-cultured naïve CD4 T cells (α4β7 integrin); experiment: Intracellular p-cofilin staining and flow cytometry after Act-1 stimulation; format: cell-based, human; conditions: memory T cells treated with PTX 2 hours, then Act-1 1 μg/ml; 30 min
Method: In the human peripheral blood, high levels of α4β7 were detected on a subpopulation of resting memory CD4 T cells (36).
One million cells were fixed, permeabilized with methanol, washed, and then stained with an anti-human p-cofilin antibody using a commercial intracellular staining kit (Virongy, Manassas, Va.) for 60 min at room temperature. Cells were washed twice and stained with Alexa Fluor 488-labeled chicken anti-rabbit antibodies (Invitrogen, Carlsbad, Calif.). Cells were washed twice, and then analyzed on a FACSCalibur (BD Biosciences, San Jose, Calif.).

[6] = test system: α4β7 on naïve CD4 T cells; experiment: Surface staining of α4β7 and flow cytometry; format: cell-based, human; conditions: naïve T cells cultured in IL-7 (5 ng/ml) for 3 days; FIG. 5
From the text: All protocols involving human subjects were reviewed and approved by the George Mason University institutional review board. Peripheral blood mononuclear cells (PBMC) were purified from peripheral blood of HIV-negative donors by centrifugation in Lymphocyte Separation Medium (Corning, Corning, N.Y.), and resting CD4 T cells were further purified by two rounds of negative selection as previously described (13, 54). Briefly, for the first-round depletion, monoclonal antibodies against human CD14, CD56 and HLA-DR, DP, and DQ (BD Biosciences, San Jose, Calif.) were used. For the second-round depletion, monoclonal antibodies against human CD8, CD11b, and CD19 (BD Biosciences, San Jose, Calif.) were used. Antibody-bound cells were depleted using Dynabeads Pan Mouse IgG (Invitrogen, Carlsbad, Calif.). […]
as §1

C=C1[C@@H](O)[C@@H]2O[C@]3(CC[C@H](/C=C/[C@@H](C)[C@@H]4CC(C)=C[C@@]5(O[C@H](C[C@@](C)(O)C(=O)O)CC[C@H]5O)O4)O3)CC[C@H]2O[C@@H]1[C@@H](O)C[C@H](C)[C@H]1O[C@@]2(CCCCO2)CC[C@H]1C [okadaic acid]
LIMK activation, cofilin phosphorylation and actin polymerization (LIMK): activate LIMK and enhance cofilin phosphorylation and actin polymerization
toxicity [1]: high toxicity

Cc1nnc(C(C)C)n1C1C[C@H]2CC[C@@H](C1)N2CC[C@H](NC(=O)C1CCC(F)(F)CC1)c1ccccc1 (stereo in doubt) [maravoric]
cofilin activation by gp120(BAL) after pretreatment with CCR5 blocker ([2]; maravoric 1 μM for 1 hour, then gp120(BAL) 100 nM, FIG. 1D): largely abrogated

COC(=O)c1ccc2nc(C3CCN(c4ncnc5[nH]cc(Cl)c45)CC3)[nH]c2c1 [R10015]
decrease in migrating T cells ([3]; 15 μM or 20 μM R10015 (50% reduction in cofilin phosphorylation), A3R5.7 and blood T cells, SDF-1 40 ng/ml): 20-40%
percentage of migrating α4β7^high T cells ([3]; R10015 alone, control 8.90%, FIG. 4F): 4.52%
percentage of the CCR7^+ T cell subpopulation among migrating cells ([3]; R10015 and Act-1, FIG. 8): not altered
impairment of T cell chemotaxis ([3]; different dosages of R10015, SDF-1 40 ng/ml, FIGS. 3C and 3D): dosage-dependent impairment of T cell chemotaxis
cofilin phosphorylation reduced to ([4]; around 15 to 20 μM R10015, one hour, A3R5.7 or blood resting CD4 T cells): around 50%
dephosphorylation of cofilin ([4]; different dosages of R10015, one hour, FIGS. 3A and 3B): dosage-dependent dephosphorylation of cofilin

pertussis toxin
Act-1-mediated cofilin activation after PTX [5]: late inhibition of cofilin activation
cofilin activation (dephosphorylation) following exposure to R5-HIV ([2]; resting memory CD4 T cells, pertussis toxin 100 ng/ml for 1 hour, then HIV(AD8), FIG. 1C): largely abrogated late cofilin activation

B1: IL-7: cytokine used to culture naïve T cells for α4β7 surface receptor upregulation (protein, UniProt P13232 26-177, looked up)
Interleukin-7: DCDIEGKDGKQYESVLMVSIDQLLDSMKEIGSNCLNNEFNFFKRHICDANKEGMFLFRAARKLRQFLKMNSTGDFDLHLLKVSEGTTILLNCTGQVKGRKPAALGEAQPTKSLEENKSLKEQKKLNDLCFLKRLLQEIKTCWNKILMGTKEH
α4β7 surface expression [6]: greatly upregulate α4β7 on the cell surface
